From patent publication US8623909B2, “Prophylactic/therapeutic agents for lifestyle-related diseases” (priority 2008, dated 2014)
Marks after values point to notes of the source that are not given here.

What was measured:
ORX rats [1] = test: Prostate weight in ORX rats (virilization effect); type: in vivo, rat; conditions: for Prostate weight: 21 days, solvent 10.2, sham 132.5; for Change in prostate weight (in words): doses of 1 to 10 mg/kg body weight
Protocol: The virilization effect of compounds was studied by using the changes in prostate weight during administration of the compounds to ORX rats as an indicator of virilization effect.
(§1) 11-week-old, male Sprague-Dawley (SD) rats (320 to 340 g, purchased from Charles River Japan) were housed for 1 week in a room maintained at a light-dark cycle of 12 hours per day and controlled at a set temperature and humidity while allowing free access to a commercially available standard rodent diet and water.
(§2) After housing the animals, the animals were anesthetized with ether, and underwent bilateral orchiectomy (orchiectomized rats: ORX) or a sham treatment. After awaking from the anesthesia, the animals were assigned to test groups of 3 to 5 animals each. Starting on the day after surgery, the animals were subcutaneously injected once a day with an injection solution of the test compound (prepared by dissolving the test compound in a small amount of DMSO and diluting with olive oil for animal testing (consisting of 95% olive oil and 5% DMSO)) at the rate of 0.1 ml/100 g of body weight. After 21 days, the rats were sacrificed by exsanguination from the abdominal artery, the ventral prostates and anal levator muscle were excised and weighed followed by immersing in RNAlater (Nacalai Tesque) for extraction of RNA. In addition, soft tissue was removed from the right femur, and immersed in 75% ethanol followed by storage for subsequent measurement of the bone mineral density. Moreover, liver and visceral fat tissue were collected and immersed in RNAlater for RNA extraction.

IRS-2 mRNA = IRS-2 mRNA level in liver of ORX rats; type: in vivo, rat; conditions: for IRS-2 mRNA/GAPDH mRNA level in rat liver: solvent 4.8, sham 1.0
Source text: as §2, with “Starting on the day after surgery, the animals were subcutaneously injected once a day with an injection solution of the test compound (prepared by dissolving the test compound in a small amount of DMSO and diluting with olive oil for animal testing (consisting of 95% olive oil and 5% DMSO)) at the rate of 0.1 ml/100 g of body weight.” left out
(§3) Total RNA in various tissues of the ORX rats was isolated using the RNeasy Mini Kit or RNeasy Fibrous Tissue Mini Kit (Qiagen). 1 μg of this total RNA was subjected to reverse transcription using the QuantiaTect Reverse Transcription Kit (Qiagen). Next, cDNA was subjected to real-time PCR analysis using LightCycler (Roche Diagnostics) and each of the transcription products was quantified. Furthermore, PCR was carried out in 20 μl of a reaction mixture under the following conditions using SYBR Premix Ex Taq (Takara Biotechnology): 50 cycles consisting of denaturation for 5 seconds at 95° C., annealing for 20 seconds at 60° C. and elongation for 25 seconds at 72° C. In addition, glyceraldehyde-3-phosphate dehydrogenase (GAPDH) mRNA was simultaneously amplified as an internal standard, and the real-time PCR value of each transcription product were calculated as a relative value based on GAPDH.
In addition, mRNA levels of insulin receptor substrate 2 (IRS-2) in the liver were also measured.

UCP-1 mRNA = UCP-1 mRNA level in visceral fat of ORX rats; type: in vivo, rat; conditions: for UCP-1 mRNA/GAPDH mRNA level in rat visceral fat: solvent 1.0, sham 1.0
Protocol: as §1, §2, §3
Thus, UCP-1 mRNA levels in rat visceral fat were also measured for the purpose of confirmation.

ORX rats [2] = test: Anal levator muscle weight in ORX rats (anabolic effect); type: in vivo, rat; conditions: for Anal levator muscle weight: 21 days, solvent 41.6, sham 73.1; for Change in anal levator muscle weight (in words): dihydrotestosterone 1 and 10 mg/kg, compound of formula (Ia) 10 mg/kg
Protocol: as §1, §2
(§4) The anabolic effect of compounds was studied by using as indicators changes in anal levator muscle weight and bone mineral density (BMD) of the femur and vertebra in the ORX rats treated in the aforementioned section (4)-1).
Anal levator muscle is a typical skeletal muscle localized around the rat rectum, and is considered to be sensitive to male steroid hormone. Although the anal levator muscle is considerably smaller in castrated rats as compared with normal male rats, its weight is well known to be able to be restored to normal by administration of androgen (J. Pharmacol. Exp. Ther., 91, 38-44). The results of measuring the weights of the anal levator muscle in the ORX rats obtained in section (4)-1) are shown in the following Table 7.

ORX rats [3] = test: Vertebral bone mineral density in ORX rats; type: in vivo, rat; conditions: for Vertebral BMD: solvent 762.7, sham 770.8
Protocol: as §1, §2, §4
BMD value of epiphyseal cancellous bone of the femur and vertebra of ORX rats treated in the aforementioned section (4)-1) were measured using Scan Xmate-A100S (Comscantecno).

ORX rats [4] = test: Plasma insulin level in ORX rats; type: in vivo, rat; conditions: for Plasma insulin concentration: solvent 1.0, sham 1.6; for Effect on insulin levels (in words): 1 and 10 mg/Kg
Source text: as §2, with “Starting on the day after surgery, the animals were subcutaneously injected once a day with an injection solution of the test compound (prepared by dissolving the test compound in a small amount of DMSO and diluting with olive oil for animal testing (consisting of 95% olive oil and 5% DMSO)) at the rate of 0.1 ml/100 g of body weight.” left out
The inventors of the present invention measured total plasma adiponectin levels in ORX rats treated in the aforementioned section (4)-1). Plasma insulin levels were also measured simultaneously.

PSA promoter = test: PSA promoter-luciferase activity in LNCaP cells (dual-luciferase reporter); type: cell-based, human
Protocol: Plasmid pCMV-hAR was constructed based on a method previously reported by the inventors of the present invention (J. Biol. Chem., 282, 7329-7338). In addition, reporter plasmids consisting of PGL3-PSA (human) and PGL3-UCP-1 (mouse) were also constructed based on a method previously reported by the inventors of the present invention (Diabetes, 54, 1000-1008). Furthermore, pRL-SV40 was acquired commercially.
NIH-3T30-L1 mouse preadipocytes were cultured in Dulbecco's modified Eagle's medium (Sera Laboratories) containing 10% fetal calf serum. In addition, cells of human prostate cancer cell line LNCap were cultured in RPMI 1640 medium (Sigma) containing 10% fetal calf serum. Furthermore, these two types of cell lines were obtained from the American Type Culture Collection (Manassas).
The NIH-3T3-L1 cells of 2) above were co-transfected with pCMV-hAR, pRL-SV40 and PGL3-UCP-1 (mouse) in a 24-well plate using an Effectene Transfection Kit (Qiagen) and a Fugene HD Kit (Roche Diagnostics). In addition, the LNCaP cells of 2) above were similarly co-transfected with pCMV-hAR, pRL-SV40 and PGL3-PSA (human).
4) Measurement of Effect on PSA Promoter-Luciferase Activity in LNCaP Cells
The LNCaP cells co-transfected in 3) above were cultured for 24 hours in DMEM or RPMI 1640 containing 10% fetal calf serum treated with dextran-charcoal and a test compound (dissolved in a small amount of DMSO) 24 hours after transfection. Subsequently, the activities of firefly luciferase and Renilla luciferase were assayed in a 24-well plate using the Dual-Luciferase Reporter Assay System (Promega) in accordance with the protocol of Minilumat LB9507 (Berthold Technologies). Furthermore, the value of firefly luciferase activity were normalized based on the internal Renilla control, and were presented as relative luciferase activity.

CC(=O)[C@H]1CCC2C3CCc4c(C)cccc4C3CC[C@@]21C (stereo partly drawn) [Compound of formula (Ia)]
Prostate weight (ORX rats [1]; 1 mg/Kg s.c. once a day): 11.1** mg/100 g of body weight
Prostate weight (ORX rats [1]; 10 mg/Kg s.c. once a day): 13.3** mg/100 g of body weight
Change in prostate weight (in words) (ORX rats [1]): did not increase
Effect on liver IRS-2 mRNA level (in words) (IRS-2 mRNA): increased
IRS-2 mRNA/GAPDH mRNA level in rat liver (IRS-2 mRNA; 1 mg/Kg): 10.6**
IRS-2 mRNA/GAPDH mRNA level in rat liver (IRS-2 mRNA; 10 mg/Kg): 8.8*
Effect on visceral fat UCP-1 mRNA levels (in words) (UCP-1 mRNA): this increase was not significant
UCP-1 mRNA/GAPDH mRNA level in rat visceral fat (UCP-1 mRNA; 1 mg/Kg): 1.7
UCP-1 mRNA/GAPDH mRNA level in rat visceral fat (UCP-1 mRNA; 10 mg/Kg): 1.5
Anal levator muscle weight (ORX rats [2]; 1 mg/Kg s.c. once a day): 59.1^ mg/100 g body weight
Anal levator muscle weight (ORX rats [2]; 10 mg/Kg s.c. once a day): 66.2* mg/100 g body weight
Change in anal levator muscle weight (in words) (ORX rats [2]): increased significantly to a similar level to that observed in the sham treatment group
Vertebral BMD (ORX rats [3]; 1 mg/Kg): 769.5 mg/mL
Vertebral BMD (ORX rats [3]; 10 mg/Kg): 770.3 mg/mL
Vertebral BMD (ORX rats [3]; 30 mg/Kg): 775.1 mg/mL
Plasma insulin concentration (ORX rats [4]; 1 mg/Kg): 1.5 µg/mL
Plasma insulin concentration (ORX rats [4]; 10 mg/Kg): 2.9 µg/mL
Effect on insulin levels (in words) (ORX rats [4]): this activity was milder
Value of luciferase transcription activity (PSA promoter, relative luciferase activity) (PSA promoter; 10^−5M, 24 hours, control (DMSO) 1.0): 1.3

C[C@]12CCC(=O)C[C@@H]1CC[C@@H]1[C@@H]2CC[C@]2(C)[C@@H](O)CC[C@@H]12 [Dihydrotestosterone, 5α-dihydrotestosterone, reference compound]
Prostate weight (ORX rats [1]; 1 mg/Kg s.c. once a day): 168.6**^,## mg/100 g of body weight
Prostate weight (ORX rats [1]; 10 mg/Kg s.c. once a day): 216.9*^,## mg/100 g of body weight
Change in prostate weight (in words) (ORX rats [1]): increased dose-dependently
Effect on liver IRS-2 mRNA level (in words) (IRS-2 mRNA): decreased
IRS-2 mRNA/GAPDH mRNA level in rat liver (IRS-2 mRNA; 1 mg/Kg): 5.1
IRS-2 mRNA/GAPDH mRNA level in rat liver (IRS-2 mRNA; 10 mg/Kg): 0.8
Effect on visceral fat UCP-1 mRNA levels (in words) (UCP-1 mRNA): had hardly any effect on UCP-1 mRNA levels
UCP-1 mRNA/GAPDH mRNA level in rat visceral fat (UCP-1 mRNA; 1 mg/Kg): 0.8
UCP-1 mRNA/GAPDH mRNA level in rat visceral fat (UCP-1 mRNA; 10 mg/Kg): 0.9
Anal levator muscle weight (ORX rats [2]; 1 mg/Kg s.c. once a day): 93.8^## mg/100 g body weight
Anal levator muscle weight (ORX rats [2]; 10 mg/Kg s.c. once a day): 120.6**^,## mg/100 g body weight
Change in anal levator muscle weight (in words) (ORX rats [2]): weights increased beyond those in the case of the sham treated rats
Vertebral BMD (ORX rats [3]; 1 mg/Kg): 768.4 mg/mL
Vertebral BMD (ORX rats [3]; 10 mg/Kg): 763.2 mg/mL
Effect on vertebral BMD (in words) (ORX rats [3]; 1 and 10 mg/Kg): did not have an effect on vertebral BMD
Effect on insulin levels (in words) (ORX rats [4]): increased the insulin levels
PSA promoter activity stimulation (PSA promoter; 10^−7 M or 10^−8 M): roughly 9 fold
